Tests used:
Test in all cases: ESI-MS, negative mode
[1] = test system: ssDNA1 (DNA, single strand) GTCCATGCCCCAGGCCCACC; conditions: ammonium acetate 15 mM, 10-fold molar excess over dsDNA, 24 h, ssDNA in equilibrium with dsDNA
[2] = test system: ssDNA2 (DNA, single strand) GGTGGGCCTGGGGCATGGAC; conditions: ammonium acetate 15 mM, 10-fold molar excess over dsDNA, 24 h, ssDNA in equilibrium with dsDNA
[3] = test system: 20 mer double strand DNA (dsDNA) (DNA, duplex) GTCCATGCCCCAGGCCCACC/GGTGGGCCTGGGGCATGGAC; conditions: ammonium acetate 15 mM, 10-fold molar excess of compound, room temperature, 24 h, diluted 1:10, pH 6.8

Row | Compound | binding ([1]; no adduct peak) | binding ([2]; no adduct peak) | binding [3] | binding ([1]; partial binding) | binding ([2]; partial binding) | binding ([3]; covalent, each cisplatin lost both chloride ligands)
1 | C=C.CC(=O)OC[C@H]1O[C@@H](N2[C]N(C)C=C2)[C@H](OC(C)=O)[C@@H](OC(C)=O)[C@@H]1OC(C)=O.Cc1ccc2ccc3ccc(C)nc3c2n1.[CH3-].[Pt+2] | no | no | yes | – | – | –
2 | CC(=O)OC[C@H]1O[C@@H](N2[C]N(C)C=C2)[C@H](OC(C)=O)[C@@H](OC(C)=O)[C@@H]1OC(C)=O.[CH3-].[CH3-].[CH3-].[Pt+4].c1cnc2c(c1)ccc1cccnc12 | – | – | yes | weak | weak | –
3 | N.N.[Cl-].[Cl-].[Pt+2] | – | – | – | – | – | yes

Reference: publication PMC7997382 (2020)
